In US20240277742A1, “TRANSLATION INHIBITOR WITHOUT OCCUPYING RIBOSOME RESOURCES AS ANTI-TUMOR DRUG” (CHI BIOTECH CO., LTD., priority 2022, published 2024):

Key:
ribosomes = test: Sucrose density ultracentrifugation (polysome profiling) of drug-treated cell lysates; type: cell-based; details: methyl aurintricarboxylate 50 μg/mL; Harringtonin 10 μg/mL; Kasugamycin 10 μg/mL; Pateamine A 2 μM; Hippuristanol 1 μM
Procedure: Example 2 Proof that methyl aurintricarboxylate, Kasugamycin and Hippuristanol are all translation inhibitors without occupying ribosome resources Using methods well known to those skilled in the art, sucrose density ultracentrifugation (polysome profiling) was carried out to measure polysomes. Ultracentrifugation was performed on normal cell lysates and drug-treated cell lysates at 15-50% sucrose density gradient, the solution was pumped out slowly, and OD260 nm (260 nm Optical Density) was measured. In FIG. 2A, the black line, gray solid line and gray dashed line are the experimental curves of normal cells, cells treated with methyl aurintricarboxylate (concentration 50 μg/mL) and cells treated with Harringtonin (concentration 10 μg/mL) respectively. In FIG. 2B, the gray solid line, gray dashed line, and black dotted line are the experimental curves of cells treated with Kasugamycin (concentration 10 μg/mL), Pateamine A (concentration 2 μM), and Hippuristanol (concentration 1 μM), respectively. The peak heights of the curves are related to concentration.

[1] = test system: human breast cancer cell line MDA-MB-468; test: Cell proliferation by sulforhodamine B assay; type: cell-based; details: MDA-MB-468, 1 mg/L
Procedure: The human breast cancer cell line MDA-MB-468 was cultured, 1 mg/L Kasugamycin was then added, and cell proliferation was measured by the sulforhodamine B assay well known in the art (see Qin et al., BAPI promotes breast cancer cell proliferation and metastasis by deubiquitinating KLF5, Nature Communications 6:8471).

H1299 lung cancer cells = test: Nude-mouse lung cancer xenograft model, tumor diameter; type: in vivo, nude mice; details: gavage once, 10 μg/kg, days 1, 3, 5
Procedure: Using techniques well known in the art, the tumor inhibition assay of Kasugamycin was carried out on a nude-mouse xenograft model. Nude mice were subcutaneously injected with H1299 lung cancer cells. After the tumors formed, kasugamycin was administered (by gavage) once at a dose of 10 μg/kg. On days 1, 3, and 5, the tumor diameters of the nude mice were measured in vivo.

lung cancer A549 cells = details: cisplatin concentration adopted (50 μM), from reported procedure; cited from earlier work
HBE cells [2] = test: Transwell migration assay; type: cell-based, human; details: 20 μg/mL, vs blank control
Procedure: (§1) Cell migration, cell invasion, cell apoptosis, cell colony formation and cytotoxicity experiments were carried out using methods well known to those skilled in the art. […] (1) Cell migration: The Transwell migration assay was carried out to test the migration ability of HBE, A549 and H1299 cells passing pores before and after treatment. The final concentration of methyl aurintricarboxylate was 20 μg/mL.

A549 cells [3] = test: Transwell migration assay; type: cell-based; details: A549, 20 μg/mL, vs blank control
Procedure: as §1

H1299 cells [4] = test: Transwell migration assay; type: cell-based; details: H1299, 20 μg/mL, vs blank control
Procedure: as §1

A549 cells [5] = test: Transwell invasion assay; type: cell-based; details: A549, 20 μg/mL, vs blank control
Procedure: (§2) Cell migration, cell invasion, cell apoptosis, cell colony formation and cytotoxicity experiments were carried out using methods well known to those skilled in the art. […] (2) Cell invasion: Transwell invasion assay was carried out on HBE, A549 and H1299 cells treated with or without methyl aurintricarboxylate (final concentration 20 μg/mL).

H1299 cells [6] = test: Transwell invasion assay; type: cell-based; details: H1299, 20 μg/mL, vs blank control
Procedure: as §2

HBE cells [7] = test: Cell apoptosis, Annexin V labelling; type: cell-based, human; details: HBE, 10, 20, 40 μg/mL
Procedure: (§3) Cell migration, cell invasion, cell apoptosis, cell colony formation and cytotoxicity experiments were carried out using methods well known to those skilled in the art. […] (3) Cell apoptosis: Cells were fluorescently labeled using Annexin V, and the occurrence of cell apoptosis was tested under a fluorescence microscopy or on a flow cytometer. […] As the concentration of methyl aurintricarboxylate increases (final concentration: 10 μg/mL, 20 μg/mL, 40 μg/mL), the percentage of apoptosis of cancer cells increases. The percentage of apoptosis of cancer cells is positively correlated with the concentration of methyl aurintricarboxylate. Under the same experimental conditions, the onset concentration of aurintricarboxylic acid (0.25-0.5 mg/mL) is 12.5 to 25 times that of methyl aurintricarboxylate.

A549 cells [8] = test: Cell apoptosis, Annexin V labelling; type: cell-based; details: A549, 10, 20, 40 μg/mL, increases with concentration
Procedure: as §3

H1299 cells [9] = test: Cell apoptosis, Annexin V labelling; type: cell-based; details: H1299, 10, 20, 40 μg/mL, increases with concentration
Procedure: as §3

A549 cells [10] = test: Agar colony formation assay; type: cell-based; details: A549, 20 μg/mL
Procedure: as §2, with “(4)” for “(2)”, “colony formation: Agar colony formation” for “invasion: Transwell invasion”, “on” for “on HBE,”, “cells that were untreated and” for “cells”, “with” for “with or without”

H1299 cells [11] = test: Agar colony formation assay; type: cell-based; details: H1299, 20 μg/mL
Procedure: as §2, with “(4)” for “(2)”, “colony formation: Agar colony formation” for “invasion: Transwell invasion”, “on” for “on HBE,”, “cells that were untreated and” for “cells”, “with” for “with or without”

[12] = test system: ES-2 human ovarian cancer cell line; test: Apoptosis by Annexin V flow cytometry assay; type: cell-based
Procedure: (§4) Apoptosis assay was carried out using human normal fibroblasts (primary culture) as normal controls and ES-2 human ovarian cancer cell line as cancer cells. […] (c) Apoptosis was tested by Annexin V flow cytometry assay. In the figure, cells in the area Q1 are non-apoptotic cells, cells in the area Q3 are early apoptotic (the key area for observing apoptosis), and cells in the area Q2 are late apoptotic, including some necrotic cells.

[13] = test system: human normal fibroblasts (primary culture); test: Apoptosis by Annexin V flow cytometry assay; type: cell-based; details: 20 μg/mL to 50 μg/mL, 48 h
Procedure: as §4

[14] = test system: HCCLM3 liver cancer cells; test: Cell proliferation by CCK-8; type: cell-based; details: HCCLM3, 50 μg/mL or above, dose-effect relationship
Procedure: (§5) The Chinese liver cancer cell lines HCCLM3 and MHCC97H were taken, and cell proliferation was tested with the addition of methyl aurintricarboxylate. […] (b) A methyl aurintricarboxylate solution was added to the culture medium and the final concentrations of methyl aurintricarboxylate reached 10 μg/mL, 20 μg/mL, 50 μg/mL, 80 μg/mL and 120 μg/mL, respectively. The cells were further incubated for […] before sampling. (c) Cell proliferation was tested by CCK-8 (Cell Counting Kit-8).

[15] = test system: MHCC97H liver cancer cells; test: Cell proliferation by CCK-8; type: cell-based; details: 50 μg/mL or above, dose-effect relationship
Procedure: as §5

[16] = test system: cancer cells (A549 and H1299); test: Cell apoptosis, onset concentration comparison under the same conditions; type: cell-based; details: same experimental conditions as methyl aurintricarboxylate
Procedure: as §3

[17] = test system: human breast cancer cell line MDA-MB-468; test: Transwell migration assay; type: cell-based; details: MDA-MB-468, 50 nM, 24 h
Procedure: (§6) The human breast cancer cell line MDA-MB-468 was incubated and 50 nM Hippuristanol was then added. The well-known Transwell migration and invasion assays were carried out. 100,000 cells were added to the Transwell chamber, migration/invasion was carried out for 24 h, and crystal violet staining was performed.

[18] = test system: human breast cancer cell line MDA-MB-468; test: Transwell invasion assay; type: cell-based; details: MDA-MB-468, 50 nM, 24 h
Procedure: as §6

A549 lung cancer cells = test: Nude-mouse lung cancer xenograft model, tumor diameter; type: in vivo, nude mice; details: gavage, daily dose 10 mg/kg, days 1, 3, 5
Procedure: Using techniques well known in the art, the tumor inhibition assay of Hippuristanol was carried out on a nude-mouse xenograft model. Nude mice were subcutaneously injected with A549 lung cancer cells. After the tumors formed, Hippuristanol was administered by gavage once at a daily dose of 10 mg/kg. On days 1, 3, and 5, the tumor diameters of the nude mice were measured in vivo.

For `C[C@H]1O[C@H](O[C@H]2[C@H](O)[C@@H](O)[C@@H](O)[C@H](O)[C@@H]2O)[C@@H](N)C[C@@H]1NC(=N)C(=O)O` [Kasugamycin], the “polysome profile (OD260 nm peaks of 40S, 60S, 1× and polysomes)” value (shortened to “polysome profile”) (ribosomes) was “peaks of 40S and 60S dominate”, the cell proliferation [1] was “slows down significantly from day 4” and the “change in tumor diameter” value (H1299 lung cancer cells) was “tumor shrink significantly”.
In the case of `N.N.[Cl][Pt][Cl]` [cisplatin], the “inhibition of lung cancer A549 cells” value (lung cancer A549 cells) is given as 80-90%.
For `CC(/C=C/C(C)=C/[C@@H]1Cc2nc(cs2)[C@@H](C)C[C@@H](N)CC(=O)O[C@@H](C)C/C(C)=C/C=C\C(=O)O1)=C\CN(C)C` [Pateamine A], the “polysome profile” value (ribosomes) was “peaks of 40S and 60S dominate”.
In the case of `COC(=O)c1cc(/C(=C2/C=CC(=O)C(C(=O)O)=C2)c2ccc(O)c(C(=O)O)c2)ccc1O` [methyl aurintricarboxylate, Methyl aurintricarboxylate], the cell migration (HBE cells [2]) is reported as “little effect”, the cell migration (A549 cells [3]) is reported as “significantly inhibits the metastasis ability” and the cell migration (H1299 cells [4]) is reported as “significantly inhibits the metastasis ability”. For the same compound, the cell invasion (A549 cells [5]) was “significantly inhibits the invasion ability”, the cell invasion (H1299 cells [6]) was “significantly inhibits the invasion ability” and the cell apoptosis (HBE cells [7]) was “will not induce apoptosis”. The cell apoptosis (A549 cells [8]) was “will induce apoptosis”, the cell apoptosis (H1299 cells [9]) was “will induce apoptosis” and the “number of colonies/1000 cells” value (A549 cells [10]) was “significantly reduced”. For the same compound, the “number of colonies/1000 cells” value (H1299 cells [11]) was “significantly reduced”, the “Percentage of late apoptotic and necrotic cells” value (“Percentage” below) ([12]; 10 μg/mL, 48 h) was 29.1% and the “late apoptotic+necrotic cells” value ([12]; 20 μg/mL or above, no obvious dose-effect relationship) was “do not increase significantly”. The “Percentage” value ([12]; 20 μg/mL, 48 h) was 17.2%, the “Percentage” value ([12]; 50 μg/mL, 48 h) was 23.0% and the “Percentage” value ([12]; 120 μg/mL, 48 h) was 22.6%. The apoptosis ([12]; ES-2, 5 μg/mL, 48 h) was “significant effect on promoting apoptosis”, the early apoptosis ([12]; ES-2, 20 μg/mL, 48 h) was 67.6% and the apoptosis ([12]; ES-2, concentrations higher than 20 μg/mL, 48 h) was “almost all cells are completely apoptotic”. For the same compound, the “effect on normal cell apoptosis” value [13] was “basically no effect”, the “inhibition of cell proliferation” value [14] was “obvious inhibitory effect” and the “inhibition of cell proliferation” value [15] was “obvious inhibitory effect”.
For `O=C(O)C1=CC(=C(c2ccc(O)c(C(=O)O)c2)c2ccc(O)c(C(=O)O)c2)C=CC1=O` [aurintricarboxylic acid], the “onset concentration (apoptosis)” value [16] was 0.25 to 0.5 mg/mL.
With `C[C@H]1C[C@@]2(O[C@H]3C[C@H]4[C@@H]5CC[C@H]6C[C@H](O)CC[C@]6(C)[C@H]5[C@@H](O)C[C@]4(C)[C@H]3[C@@]2(C)O)OC1(C)C` [Hippuristanol] the “polysome profile” value (ribosomes) was “peaks of 40S and 60S dominate”, the cell migration [17] was “effectively reduce” and the cell invasion [18] was “effectively reduce”. The “change in tumor diameter” value (A549 lung cancer cells) was “tumor shrink significantly”.
In the case of `COC(=O)C[C@](O)(CCC(C)(C)O)C(=O)O[C@@H]1C(OC)=C[C@]23CCCN2CCc2cc4c(cc2[C@H]13)OCO4` [Harringtonin], the “polysome profile” value (ribosomes) is reported as “peak of 1× ribosomes is very high”.
